Measured values: patent US9291629B2, “Adiponectin receptor C-terminal fragments (CTF)-immunoglobulin” (Siemens Healthcare Diagnostics Inc., priority 2011, dated 2016)

Tests used:
mouse myocytes (C2C12) = experiment: Western blot of CTF immunoglobulin in induced mouse myocytes (C2C12); assay type: cell-based; details: for Increase of CTF immunoglobulin on treatment of cell cultures: myocyte cell culture; for Primarily observed immunoglobulin chains with CTF: treated myocyte, denatured western blot of lysates
Description: (§1) Samples and homogenates with protein concentration of about 20 ug/ml were boiled in water for 5 minutes in buffer with SDS and chilled on ice to denature the protein. The sample was then centrifuged to remove precipitate and was boiled sample 1:1 with BioRad Laemmli buffer with 5% beta-mercaptoethanol to break the disulfide bonds. The treated samples were loaded onto the 12% or 10% Ready Gel (Biorad) and SDS-PAGE gel was run in Tris, glycine, SDS buffer (BioRad) at 110V (BioRad PROTEAN® Tetra Cel) for 1-1.5 hours until the bromophenol blue reached the bottom of the gel. Gel plates were disassembled, soaked in transfer buffer and the gels were transferred to 0.2 um nitrocellulose paper at 30V in a 4° C. chamber overnight.
(§2) After the protein transfer, the nitrocellulose was rinsed and washed with TTBS buffer (20 mM Tris, 500 mM NaCl, pH 7.4, 0.1% Tween®-20). The membrane was then blocked with 5% BSA in TTBS at room temperature with gentle agitation. The blocking buffer was then removed and the membrane was incubated with antibodies conjugated to alkaline phosphatase or horse radish peroxidase. For AdipoR1 CTF, the mAb 444-1D12 conjugated to alkaline phosphatase was used (2.5 mg/ml diluted 1:1000 Siemens Healthcare Diagnostics). The membrane with antibody conjugate was incubated at room temperature for 3 hours or at 4° C. overnight with gentle agitation. The antibody was then discarded and the gel was washed three times with TTBS for 5 minutes each. The membrane was incubated with the alkaline phosphate or horse radish peroxidase substrate and the color developed and recorded. In some cases the membrane was imaged by exposure to X-ray film (Fisher) at a desired time (3 seconds to 10 minutes) and then developed using Kodak® GBX developer/fixer.
(§3) Cell culture mouse myocytes (C2C12) and green monkey epithelial cell (VERO) (American Type Cell Culture, ATCC, Manassa Va.) were maintained in culture using RPMI-1640 media, while normal cells were maintained with modified Eagle's medium (MEM). Both media contained 2 mM glutamine, penicillin (50 units/ml), streptomycin (50 μg/ml), and 10% fetal bovine serum. The media was cytokine free. Cells were grown at 37° C. in an atmosphere of 95% air and 5% CO2 and propagated by splitting with 1 to 4 dilutions using PBS/EDTA at cell growth confluence. Cell lines were synchronized and induced with R1 CTF25 SEQ ID NO:11 or globular adiponectin.
(§4) Both cell lines expressed Adiponectin receptor 1 and lysates from both cell lines contained CTF immunoglobulin, comprising the heavy chain and full IgG but without the light chain form on denatured Western blots. As these are cell cultures grown in fetal bovine serum containing bovine IgG, the cells attach CTF to IgG. […]

[1] = tested on: green monkey epithelial cell (VERO); experiment: Western blot of CTF immunoglobulin in induced green monkey epithelial cells (VERO); assay type: cell-based; details: for Increase of CTF immunoglobulin on treatment of cell cultures: epithelial cell culture; for Primarily observed immunoglobulin chains with CTF: treated epithelial cells, denatured western blot of lysates
Description: as §1, §2, §3, §4

CTF immunoglobulin = experiment: Western blot of CTF immunoglobulin in tissues of diabetic rats treated with AdipoR1 CTF25; assay type: in vivo; details: for Primarily observed immunoglobulin chains with CTF: treated diabetic rats
Description: Western blot analyses were run on human plasma, pancreas, adipose, liver and muscles tissue, as well as myocytes and epithelial cell culture homogenates according to the following methods and variations thereof.
as §1, §2
The results of the western blots obtained on liver, pancreas, muscle and mesenteric tissues of normal rats, diabetic rats and diabetic rats treated with AdipoR1 CTF25 (SEQ ID NO: 11) are shown in Table 3. Results are typical for all monoclonal antibodies to CTF AdipoR1 and AdipoR2 and treatments tested. All of the tissues show the presence of CTF immunoglobulins. […] Differences in the amount of immunoglobulin chains with CTF were observed between individual rat and between normal and diabetic rats. All tissues contained IDE and TACE.

| Substance | Increase of CTF immunoglobulin on treatment of cell cultures (mouse myocytes (C2C12)) | Primarily observed immunoglobulin chains with CTF (mouse myocytes (C2C12)) | Increase of CTF immunoglobulin on treatment of cell cultures [1] | Primarily observed immunoglobulin chains with CTF [1] | Increase of CTF immunoglobulin bands on treatment (CTF immunoglobulin; rat tissues) | Primarily observed immunoglobulin chains with CTF (CTF immunoglobulin; liver) | Primarily observed immunoglobulin chains with CTF (CTF immunoglobulin; mesenteric tissues) | Primarily observed immunoglobulin chains with CTF (CTF immunoglobulin; muscle) | Primarily observed immunoglobulin chains with CTF (CTF immunoglobulin; pancreas) |
| --- | --- | --- | --- | --- | --- | --- | --- | --- | --- |
| HFYGVSNLQEFRYGLEGGCTDDTLL [AdipoR1 CTF25] | did not increase CTF immunoglobulin | Heavy chains & | did not increase CTF immunoglobulin | Heavy chains & | did not increase bands | Light chains | Heavy & light | Heavy & light | Heavy chain |
| adiponectin [reference compound] | did not increase CTF immunoglobulin bands | Heavy chains & full | did not increase CTF immunoglobulin bands | Heavy chains & full | – | – | – | – | – |
